Results reported in patent publication EP2949653A1, “ISOXAZOLE DERIVATIVES AS LEUKOTRIENE BIOSYNTHESIS INHIBITORS” (Banoglu, Erden, priority 2014, dated 2015).

Key:
[1] = system: 5-LO mediated product formation; experiment: 5-LO mediated product formation in intact neutrophils stimulated with A23187 (cell-based); parameters: species or system human; settings: for activity at 1 µM / activity at 10 µM: PMNL, human neutrophils, 2.5 µM A23187, means ± SE, n = 3-6; for activity at 1 µM: remaining activity at 1 µM inhibitor, read-out: 5-LO mediated product formation in intact neutrophils (PMNL) (% of control) at 1 µM; for activity at 10 µM: remaining activity at 10 µM inhibitor, read-out: 5-LO mediated product formation in intact neutrophils (PMNL) (% of control) at 10 µM; for IC50: Neutrophil, intact human neutrophils stimulated with 2.5 µM A23187, mean ± SE, n = 3-4, read-out: Inhibition of purified 5-LO activity IC50 (µM) cell based
Method: (§1) Cell based and cell-free assays carried out in biological studies, immunofluorescence microscopy analysis and zymosan-induced peritonitis in mice are performed as described hereinabove (Pegola, C. and et al., British J. Pharmacology, 2014, D01:10.1111/bph.12625). In the cell based assays (intact neutrophils or monocytes), 5-LO mediated product formation is started, after pre-incubation with test compounds (or control DMSO) for 15 min. at 37 °C, with addition of Ca-ionophore A23187 (2.5 µM) to the fresh 5 x 10^6 neutrophils or monocytes suspended in 1 ml of PGC buffer (phosphate buffered saline (PBS) solution containing 1 mg ml^-1 glucose and 1mM CaCl2, pH 7.4). After the incubation for 10 min. at 37 °C, the reaction is ended with addition of 1 ml of methanol, and 30 µL 1 N HCl, 200 ng prostaglandin B1 and 500 µL PBS are added to the mixture. In cell-free assays (isolated 5-LO and cell homogenates), human recombinant 5-LO protein or 40,000g supernatant is added to 1 ml of 5-LO reaction mixture (PBS, pH 7.4, 1 mM EDTA, 1 mM ATP), and then incubated with test compounds (or control DMSO) for 10 min. at 4°C, heated to 37 °C and 2 mM CaCl2 as well as AA at certain concentrations are added. The reaction is ended as described for the cell-based assays. Resulting 5-LO mediated products are extracted and analysed by the known method of high pressure liquid chromatography (HPLC) (Pergola, C. Proc Natl. Acad. Sci. U.S.A. 2008, 105, 19881). 5-LO mediated product formation (LTB4 and all trans isomers, and 5 (S)-hydro(pero)xy-6-trans-8, 11, 14-cis-eicosatetraenoic acid, 5-H(p)ETE) is expressed as ng per 10^6 cell. Cysteinyl-LTs have not been analyzed because that the amount of C4, D4 and E4 and LTB4 oxidation products are below the detection limit.
(§2) Compounds were tested in intact human neutrophils stimulated with 2.5 µM A23187 under cell based conditions and on purified 5-LO under cell free conditions. ^aData are given as remaining activity as a percentage of control (100%) at 10 µM or 1 µM inhibitor concentrations (means ± SE, n = 3-6).
Compound 9hj inhibited 5-LO mediated product formation with IC50 of 60 nM in human neutrophils. Neutrophils are stimulated with Ca-ionophore A23187 (2.5 µM), without the addition of exogenous arachidonic acid (AA), after pre-incubation with 9hj or vehicle (0.1 % DMSO). 100% controls correspond to 275.7 ng mL^-1 of 5-LO mediated products (Figure 1).
100% controls correspond to 328.97 ng mL^-1 of 5-LO mediated products.

[2] = molecular target: T1, purified 5-LO (Homo sapiens, UniProt P09917); experiment: Purified / human recombinant 5-LO activity (cell-free); assay type: biochemical; settings: purified 5-LO under cell free conditions; mean ± SE, n = 3-4; read-out: Inhibition of purified 5-LO activity IC50 (µM) cell-free
T1 sequence (P09917 1-674): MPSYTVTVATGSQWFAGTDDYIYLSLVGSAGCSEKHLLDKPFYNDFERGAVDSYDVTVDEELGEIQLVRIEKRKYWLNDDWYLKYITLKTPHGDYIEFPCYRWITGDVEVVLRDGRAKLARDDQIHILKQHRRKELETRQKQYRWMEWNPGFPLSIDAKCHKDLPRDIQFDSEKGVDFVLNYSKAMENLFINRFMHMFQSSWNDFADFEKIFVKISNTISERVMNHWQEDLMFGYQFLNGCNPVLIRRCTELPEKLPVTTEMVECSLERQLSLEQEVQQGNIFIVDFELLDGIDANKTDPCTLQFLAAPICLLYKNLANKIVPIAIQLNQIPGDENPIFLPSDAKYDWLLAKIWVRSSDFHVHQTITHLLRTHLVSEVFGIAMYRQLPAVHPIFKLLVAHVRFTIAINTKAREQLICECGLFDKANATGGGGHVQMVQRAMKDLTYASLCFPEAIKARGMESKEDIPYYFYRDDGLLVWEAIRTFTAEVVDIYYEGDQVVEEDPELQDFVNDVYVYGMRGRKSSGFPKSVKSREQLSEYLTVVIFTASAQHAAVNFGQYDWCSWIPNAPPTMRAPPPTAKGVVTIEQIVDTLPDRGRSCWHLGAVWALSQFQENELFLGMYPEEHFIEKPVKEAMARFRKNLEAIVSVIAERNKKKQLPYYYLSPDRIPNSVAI
Method: as §1, §2
9hj was added 15 min before addition of 2 mM Ca^2+ plus 3 µM, 10 µM and 30 µM AA. 100% controls correspond to 200.35 ng mL^-1 for 3 µM AA, 514.36 ng mL^-1 for 10 µM AA and 537.73 ng mL^-1 for 30 µM AA.

[3] = molecular target: T1, purified 5-LO; experiment: as above; assay type: biochemical; settings: remaining 5-LO activity (percentage of uninhibited control) at 30 µM test compound

Structure (SMILES) | IC50 [1] [µM] | IC50 [2] [µM] | remaining activity at 30 µM [3] [%] | activity at 1 µM [1] [%] | activity at 10 µM [1] [%]
CCOC(=O)c1noc(-c2ccc(OCc3ccccc3C)cc2)c1-c1ccc(Cl)cc1 [Compound 7aj, Ethyl 4-(4-chlorophenyl)-5-(4-((2-methylbenzyl)oxy)phenyl)isoxazole-3-carboxylate] | – | – | – | 85.2 ± 0.7 | 71.9 ± 10.3
CCOC(=O)c1noc(-c2ccc(OCc3cccc(F)c3)cc2)c1-c1ccc(Cl)cc1 [Compound 7bj, Ethyl 4-(4-chlorophenyl)-5-(4-((3-fluorobenzyl)oxy)phenyl)isoxazole-3-carboxylate] | – | – | – | 66.1 ± 14.3 | 55.3 ± 12.1
CCOC(=O)c1noc(-c2ccc(OCc3ccc(C)cc3)cc2)c1-c1ccc(Cl)cc1 [Compound 7cj, Ethyl 4-(4-chlorophenyl)-5-(4-((4-methylbenzyl)oxy)phenyl)isoxazole-3-carboxylate] | – | – | – | 78.3 ± 16.2 | 61.4 ± 12.4
CCOC(=O)c1noc(-c2ccc(OCc3ccccc3C)cc2)c1-c1cccc(Cl)c1 [Compound 8aj, Ethyl 4-(3-chlorophenyl)-5-(4-((2-methylbenzyl)oxy)phenyl)isoxazole-3-carboxylate] | – | – | – | 88 ± 10.2 | 83.4 ± 16.2
CCOC(=O)c1noc(-c2ccc(OCc3cccc(F)c3)cc2)c1-c1cccc(Cl)c1 [Compound 8bj, Ethyl 4-(3-chlorophenyl)-5-(4-((3-fluorobenzyl)oxy)phenyl)isoxazole-3-carboxylate] | – | – | – | 90.6 ± 11.5 | 80.8 ± 11.8
Cc1ccccc1COc1ccc(-c2onc(C(=O)O)c2-c2ccc(Cl)cc2)cc1 [Compound 9aj, 4-(4-Chlorophenyl)-5-(4-((2-methylbenzyl)oxy)phenyl)isoxazole-3-carboxylic acid] | 1.7 ± 0.47 | 0.48 ± 0.03 | – | 74.5 ± 8.6 | 13.1 ± 3.9
N#Cc1cccc(COc2ccc(-c3onc(C(=O)O)c3-c3ccc(Cl)cc3)cc2)c1 [Compound 9dj, 4-(4-Chlorophenyl)-5-(4-((3-cyanobenzyl)oxy)phenyl)isoxazole-3-carboxylic acid] | 4.13 ± 0.33 | 16.3 ± 5.95 | – | 70 ± 9.14 | 6.91 ± 3.92
Cc1cc(OCc2cccc(C#N)c2)ccc1-c1onc(C(=O)O)c1-c1ccc(Cl)cc1 [Compound 9dk, 4-(4-Chlorophenyl)-5-(4-((3-cyanobenzyl)oxy)-2-methylphenyl)isoxazole-3-carboxylic acid] | 2.36 ± 0.32 | 5.01 ± 1.38 | – | 77.4 ± 13.2 | 0.42 ± 0.21
O=C(O)c1noc(-c2ccc(OCc3ccccn3)cc2)c1-c1ccc(Cl)cc1 [Compound 9gj, 4-(4-Chlorophenyl)-5-(4-(pyridin-2-ylmethoxy)phenyl)isoxazole-3-carboxylic acid] | 4.09 ± 0.12 | 7.39 ± 2.45 | – | 82.1 ± 15.2 | 21.3 ± 8.34
Cc1ccccc1COc1ccc(-c2onc(C(=O)O)c2-c2cccc(Cl)c2)cc1 [Compound 10aj, 4-(3-Chlorophenyl)-5-(4-((2-methylbenzyl)oxy)phenyl)isoxazole-3-carboxylic acid] | 2.08 ± 0.33 | 0.5 ± 0.03 | – | 84.5 ± 9.1 | 0.7 ± 0.7

Continued by falling IC50 [1], values first:

IC50 [1] [µM] | IC50 [2] [µM] | remaining activity at 30 µM [3] [%] | Structure (SMILES) | activity at 1 µM [1] [%] | activity at 10 µM [1] [%]
1.64 ± 0.11 | 0.38 ± 0.03 | – | O=C(O)c1noc(-c2ccc(OCc3cccc(F)c3)cc2)c1-c1cccc(Cl)c1 [Compound 10bj, 4-(3-Chlorophenyl)-5-(4-((3-fluorobenzyl)oxy)phenyl)isoxazole-3-carboxylic acid] | 66.7 ± 8.5 | 8.4 ± 5.1
1.45 ± 0.09 | > 30 | 51 | Cc1cc(OCc2ccccc2Cl)ccc1-c1onc(C(=O)O)c1-c1ccc(Cl)cc1 [Compound 9ek, 5-(4-((2-Chlorobenzyl)oxy)-2-methylphenyl)-4-(4-chlorophenyl)isoxazole-3-carboxylic acid] | 54.9 ± 6.46 | 2.86 ± 2.59
1.4 ± 0.09 | 5.94 ± 0.36 | – | Cc1ccc(COc2ccc(-c3onc(C(=O)O)c3-c3ccc(Cl)cc3)cc2)cc1 [Compound 9cj, 4-(4-Chlorophenyl)-5-(4-((4-methylbenzyl)oxy)phenyl)isoxazole-3-carboxylic acid] | 55.8 ± 4.31 | 15.7 ± 4.53
1.29 ± 0.61 | 0.38 ± 0.04 | – | O=C(O)c1noc(-c2ccc(OCc3cccc(F)c3)cc2)c1-c1ccc(Cl)cc1 [Compound 9bj, 4-(4-Chlorophenyl)-5-(4-((3-fluorobenzyl)oxy)phenyl)isoxazole-3-carboxylic acid] | 52.3 ± 8.3 | 19.6 ± 9.5
1.2 ± 0.11 | > 30 | 53 | Cc1ccc(COc2ccc(-c3onc(C(=O)O)c3-c3ccc(Cl)cc3)c(C)c2)cc1 [Compound 9ck, 4-(4-Chlorophenyl)-5-(2-methyl-4-((4-methylbenzyl)oxy)phenyl)isoxazole-3-carboxylic acid] | 51 ± 6.68 | 2.26 ± 1.86
1.2 ± 0.23 | 6.11 ± 0.9 | – | O=C(O)c1noc(-c2ccc(OCc3ccccc3Cl)cc2)c1-c1ccc(Cl)cc1 [Compound 9ej, 5-(4-((2-chlorobenzyl)oxy)phenyl)-4-(4-chlorophenyl)isoxazole-3-carboxylic acid] | 65.7 ± 5.9 | 5.1 ± 1.46
0.82 ± 0.17 | > 30 | 62 | Cc1cc(OCc2ccccc2C(F)(F)F)ccc1-c1onc(C(=O)O)c1-c1ccc(Cl)cc1 [Compound 9fk, 4-(4-Chlorophenyl)-5-(2-methyl-4-((2-(trifluoromethyl)benzyl)oxy)phenyl)isoxazole-3-carboxylic acid] | 44 ± 10.3 | 3.48 ± 3.05
0.82 ± 0.19 | 1.12 ± 0.14 | – | Cc1cc(OCc2cccc(F)c2)ccc1-c1onc(C(=O)O)c1-c1cccc(Cl)c1 [Compound 10bk, 4-(3-Chlorophenyl)-5-(4-((3-fluorobenzyl)oxy)-2-methylphenyl)isoxazole-3-carboxylic acid] | 48.6 ± 7.9 | 9.8 ± 3.6
0.77 ± 0.19 | 6.04 ± 0.72 | – | O=C(O)c1noc(-c2ccc(OCc3ccccc3C(F)(F)F)cc2)c1-c1ccc(Cl)cc1 [Compound 9fj, 4-(4-Chlorophenyl)-5-(4-((2-(trifluoromethyl)benzyl)oxy)phenyl)isoxazole-3-carboxylic acid] | 52.8 ± 5.94 | 5.5 ± 2.21
